Reference: patent US4877807A, “5-phenyl-1,2,3a,4,5,9b-hexahydro-3H-benz(e)indotes preparation and use thereof as drugs” (BASF Aktiengesellschaft, priority 1987, dated 1989)
Structures can show the parent of a compound that is named as a salt.

How the values were obtained:
[1] = test system: reserpine-inducd hypothermia in male mice (NMRI strain); assay: Inhibition of reserpine-induced hypothermia in mice (antidepressive action); format: in vivo; details: oral; for ED50: Mus musculus, 60 minutes before reserpine 2.15 mg/kg s.c., dose inhibiting reserpine-induced hypothermia by 50%, read-out: Antidepressive action ED 50; for effectiveness higher than that of imipramine, factor: ED 50 relative to imipramine
Description: The antidepressive activity of the substances according to the invention was studied using the following model:
Antidepressant substances inhibit this hypothermic effect, the degree of inhibition depending on the dose. The test substances were administered orally 60 minutes before the reserpine was administered.
The dose which inhibits reserpine-inducd hypothermia by 50%, ie. ED 50, is determined from the linear regression between log dose (mg/kg) and the relative decrease in the hypothermic effect.

[2] = test system: tonic spasms induced by electroshock in female mice (NMRI strain); assay: Inhibition of electroshock-induced tonic spasms in mice (anticonvulsive action); format: in vivo; details: oral; for ED50: Mus musculus, 1 h, 60 minutes before electroshock, dose inhibiting tonic spasms in 50% of the animals, n/dose=8, read-out: Anticonvulsive action ED 50
Description: The anticonvulsive action was measured on female mice (NMRI strain) having a weight of 22-26 g. Tonic spasms were induced by electroshock via ear electrodes. Stimulus data: a series of square-wave pulses 4.64 ms in duration and 14.7 mA in amplitude; frequency 100 Hz; duration of series 0.2 sec.
The electroshock was administered 60 minutes after the oral administration of the test compounds, and the appearance of tonic spasms was counted. n/dose=8. The ratios between the effectiveness (% protected animals) and log dose were calculated by probit analysis. ED 50 is the dose which inhibits the tonic spsms in 50% of the animals.

SMILES: CN1CC[C@H]2c3ccccc3[C@H](c3ccccc3)C[C@@H]21 (relative stereo) [Example 2, (±)-3aR(S),5R(S),9bR(S)-3-Methyl-5-phenyl-1,2,3a,4,5,9b-hexahydro-3H-benz[e]indole]
- ED50 [1]: 5.01 mg/kg

SMILES: CN1CC[C@@H]2c3ccccc3[C@H](c3ccccc3)C[C@@H]21 [Example 4, (+)-3aS,5S,9bR-3-Methyl-5-phenyl-1,2,3a,4,5,9b-hexahydro-3H-benzo[e]indole]
- ED50 [2]: ~46.4 mg/kg
- effectiveness higher than that of imipramine, factor [1]: about 45
- ED50 [1]: 0.087 mg/kg

SMILES: CN(C)CCCN1c2ccccc2CCc2ccccc21 [imipramine, reference compound]
- ED50 [1]: 3.82 mg/kg

SMILES: CCCN1CC[C@@H]2c3ccccc3[C@H](c3ccccc3)C[C@@H]21 (relative stereo) [Example 7, (±)-3aS(R),5S(R),9bR(S)-3-n-propyl-5-phenyl-1,2,3a,4,5,9b-hexahydro-3H-benz[e]indole hydrochloride]
- ED50 [2]: 11.9 mg/kg
- ED50 [1]: 0.26 mg/kg

SMILES: CN1CC[C@@H]2c3ccccc3[C@H](c3ccccc3)C[C@@H]21 (relative stereo) [Example 1, (±)-3aS(R),5S(R),9bR(S)-3-Methyl-5-phenyl-1,2,3a,4,5,9b-hexahydro-3H -benz[e]indole hydrochloride]
- ED50 [2]: 1.1 mg/kg
- anticonvulsive effectiveness compared with phenytoin (in words) [2]: equalled or substantially exceeded
- effectiveness higher than that of imipramine, factor [1]: about 45
- ED50 [1]: 0.082 mg/kg

SMILES: CCN1CC[C@@H]2c3ccccc3[C@H](c3ccccc3)C[C@@H]21 (relative stereo) [Example 5, (±)-3aS(R),5S(R),9bR(S)-3-ethyl-5-phenyl-1,2,3a,4,5,9b-hexahydro-3H-benz[e]indole hydrochloride]
- ED50 [2]: ~100 mg/kg
- ED50 [1]: 0.14 mg/kg

SMILES: CCN1CC[C@H]2c3ccccc3[C@H](c3ccccc3)C[C@@H]21 (relative stereo) [Example 6, (±)-3aR(S),5R(S),9bR(S)-3-Ethyl-5-phenyl-1,2,3a,4,5,9b-hexahydro-3H-benz[e]indole hydrochloride]
- ED50 [2]: 8.81 mg/kg
- anticonvulsive effectiveness compared with phenytoin (in words) [2]: equalled or substantially exceeded
- ED50 [1]: 1.61 mg/kg

SMILES: O=C1NC(=O)C(c2ccccc2)(c2ccccc2)N1 [phenytoin, reference compound]
- ED50 [2]: 14.3 mg/kg
